Legend:
Experiment in all cases: relative viability (nuclei count vs DMSO), 5 days (fraction); higher = more cells survive
A-427 = system: A-427
How it was run: (§1)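 Dosing by pin tool came one day after lung cancer cell lines were seeded in 1536-well plates, using either one drug or a fixed anchor-drug dose plus five library-drug doses (not always all listed) in √10 steps. After 5 days, nuclei were counted on 4× images. Relative viability is treated-well nuclei count divided by vehicle-well nuclei count, and values are medians of duplicate plates.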

HCC-366 = system: HCC-366
How it was run: as §1

HCC-827 = system: HCC-827
How it was run: as §1

LC-2-ad = system: LC-2-ad
How it was run: as §1

NCI-H1355 = system: NCI-H1355
How it was run: as §1

NCI-H1734 = system: NCI-H1734
How it was run: as §1

NCI-H1755 = system: NCI-H1755
How it was run: as §1

NCI-H1792 = system: NCI-H1792
How it was run: as §1

NCI-H1915 = system: NCI-H1915
How it was run: as §1

NCI-H1975 = system: NCI-H1975
How it was run: as §1

Compound `CCNC(=O)c1noc(-c2cc(C(C)C)c(O)cc2O)c1-c1ccc(CN2CCOCC2)cc1` [Luminespib] + CC1(C)CCC(c2ccc(Cl)cc2)=C(CN2CCN(c3ccc(C(=O)NS(=O)(=O)c4ccc(N[C@H](CCN5CCOCC5)CSc5ccccc5)c(S(=O)(=O)C(F)(F)F)c4)cc3)CC2)C1 [Navitoclax] (partner 0.5 µM) has a relative viability (A-427; first compound 0.002 µM) of 1.01, a relative viability (A-427; first compound 0.006325 µM) of 0.913 and a relative viability (A-427; first compound 0.02 µM) of 0.497. For the same compound, the relative viability (A-427; first compound 0.06325 µM) was 0.99, the relative viability (A-427; first compound 0.2 µM) was 1.03 and the relative viability (HCC-366; first compound 0.002 µM) was 1.11. It also gave a relative viability (HCC-366; first compound 0.006325 µM) of 0.981, a relative viability (HCC-366; first compound 0.02 µM) of 0.966 and a relative viability (HCC-366; first compound 0.06325 µM) of 0.0276. For the same compound, the relative viability (HCC-366; first compound 0.2 µM) was 0.0215, the relative viability (HCC-827; first compound 0.002 µM) was 1.07 and the relative viability (HCC-827; first compound 0.006325 µM) was 1.02. For the same compound, the relative viability (HCC-827; first compound 0.02 µM) was 1.04, the relative viability (HCC-827; first compound 0.06325 µM) was 1.01 and the relative viability (HCC-827; first compound 0.2 µM) was 1. For the same compound, the relative viability (LC-2-ad; first compound 0.002 µM) was 0.41, the relative viability (LC-2-ad; first compound 0.006325 µM) was 0.483 and the relative viability (LC-2-ad; first compound 0.02 µM) was 0.516. The relative viability (LC-2-ad; first compound 0.06325 µM) was 0.0848, the relative viability (LC-2-ad; first compound 0.2 µM) was 0.126 and the relative viability (NCI-H1355; first compound 0.002 µM) was 0.983. It also gave a relative viability (NCI-H1355; first compound 0.006325 µM) of 0.896, a relative viability (NCI-H1355; first compound 0.02 µM) of 0.473 and a relative viability (NCI-H1355; first compound 0.06325 µM) of 0.987. It also gave a relative viability (NCI-H1355; first compound 0.2 µM) of 0.968, a relative viability (NCI-H1734; first compound 0.002 µM) of 0.878 and a relative viability (NCI-H1734; first compound 0.006325 µM) of 0.698. It also gave a relative viability (NCI-H1734; first compound 0.02 µM) of 0.777, a relative viability (NCI-H1734; first compound 0.06325 µM) of 0.172 and a relative viability (NCI-H1734; first compound 0.2 µM) of 0.122. The relative viability (NCI-H1755; first compound 0.002 µM) was 0.981, the relative viability (NCI-H1755; first compound 0.006325 µM) was 0.959 and the relative viability (NCI-H1755; first compound 0.02 µM) was 0.973. It also gave a relative viability (NCI-H1755; first compound 0.06325 µM) of 0.971, a relative viability (NCI-H1755; first compound 0.2 µM) of 0.933 and a relative viability (NCI-H1792; first compound 0.002 µM) of 0.535. The relative viability (NCI-H1792; first compound 0.006325 µM) was 0.497, the relative viability (NCI-H1792; first compound 0.02 µM) was 0.539 and the relative viability (NCI-H1792; first compound 0.06325 µM) was 0.32. The relative viability (NCI-H1792; first compound 0.2 µM) was 0.216, the relative viability (NCI-H1915; first compound 0.002 µM) was 0.8 and the relative viability (NCI-H1915; first compound 0.006325 µM) was 0.793. The relative viability (NCI-H1915; first compound 0.02 µM) was 0.803, the relative viability (NCI-H1915; first compound 0.06325 µM) was 0.808 and the relative viability (NCI-H1915; first compound 0.2 µM) was 0.775. For the same compound, the relative viability (NCI-H1975; first compound 0.002 µM) was 1.17, the relative viability (NCI-H1975; first compound 0.006325 µM) was 1.06 and the relative viability (NCI-H1975; first compound 0.02 µM) was 0.877. The relative viability (NCI-H1975; first compound 0.06325 µM) was 0.218.

Reference: the supplement of paper PMC10307832
